# Laboratory results published in US20160311812A1, “ADENOSINE A1 AGONISTS AS MEDICAMENTS FOR KIDNEY DISORDERS” (BAYER PHARMA AKTIENGESELLSCHAFT, priority 2013, published 2016).
# How the values were obtained:
# [1] = test system: unilaterally nephrectomized SHR; assay: Functional and structural renal dysfunction in unilaterally nephrectomized spontaneously hypertensive rats; assay type: in vivo, rat; conditions: Group 3: UNX + 10 mg/kg body weight/day in drinking water, 4 weeks
# Description: (§1) B-4. Effects of Partial A1 Agonists on Renal and Cardiac Function in Unilaterally Nephrectomized and Spontaneously Hypertensive Rats (Example 2 for Chronic Kidney Disorders)
# (§2) Unilaterally nephrectomized, spontaneously hypertensive rats (SHR) are an established animal model for investigating the development and progression of hypertensive damage of the glomeruli in the remaining kidney [H. Kinuno et al., “Effects of uninephrectomy on renal structural properties in spontaneously hypertensive rats”, Clin and Exp Pharmacol and Physiol 2005, 32, 173-178]. […] Furthermore, renal excretion of substances usually eliminated in the urine, such as creatinine and urea, is reduced and the electrolyte metabolism is disturbed, the latter being associated with volume retention.
# (§3) Procedure: male SHR rats (180-220 g) from Taconic had the left kidney removed in one session (=UNX). Normotensive Wistar Kyoto rats (WKY) from Taconic served as control. The following groups, each with 12 rats per group, were investigated:
# (§4) Group 2 UNX+placebo (60 g glycerol+100 g water+969 g PEG-400)
# (§5) Group 3 UNX+10 mg/kg body weight/day enalapril (reference therapy, in the drinking water)
# (§6) Group 4 SNX+1.0 mg/kg body weight/day partial A1 EXAMPLE 1, p.o. in placebo
# (§7) Group 5 SNX+3.0 mg/kg body weight/day partial A1 EXAMPLE 4, p.o. in placebo
# (§8) Three weeks after unilateral nephrectomy, the SHRs developed manifest hypertensive damage of the glomeruli in the remaining kidney, from this time point on the rats were treated for a further four weeks corresponding to the groups given above. At the end of the protocol, the following samples were obtained/measurements were carried out: eight-hour urine collection, invasive measurement of systolic and diastolic left ventricular function, and TaqMan analyses of renal injury markers in the renal cortex.
# [2] = test system: 5/6 nephrectomy rat model; assay: Left-ventricular diastolic dysfunction under isoprenaline infusion in 5/6 nephrectomized rats; assay type: in vivo; conditions: Group 3: SNX + 10 mg/kg body weight/day in drinking water, 4 weeks
# Description: (§9) B-3. Effects of Partial A1 Agonists on Renal and Cardiac Function in 5/6 Nephrectomized Rats (Example 1 for Chronic Kidney Disorder)
# (§10) 5/6 nephrectomy in the rat, in which one kidney and the renal cortex of the second kidney are surgically removed (=5/6 of functional kidney tissue) is an established animal model for interstitial renal fibrosis and chronic renal insufficiency [C. Fleck et al., “Suitability of 5/6 nephrectomy (5/6NX) for the induction of interstitial renal fibrosis in rats Influence of sex, strain, and surgical procedure”, Exp. Tox. Pathology 2006, 57, 195-205]. The model is characterized by progressive proteinuria, disturbed tubular electrolyte transport, a reduced glomerular filtration rate, an increase in urinary output, interstitial fibrosis with reactively occurring lymphocyte infiltrates, glomerulosclerosis and tubular atrophy. The level of proteinuria is a specific index of the renal function prognosis: the higher the proteinuria, the greater is the functional and structural kidney injury and therefore progression of chronic to terminal renal insufficiency (uraemia). During monitoring of therapy, e.g. with the ACE inhibitor enalapril, the course of proteinuria provides information on the functional and structural response to the therapy and thus on the renal function prognosis. As a result of the renal insufficiency and accumulation of umemic toxins, in the animals there is secondary development of a umemic cardiomyopathy, depending on the severity associated with hypertension, increased heart rate, reduced parasympathetic tone, myocardial, left-ventricular hypertrophy and fibrosis, diastolic dysfunction and an increased prevalence of arrhythmias [Svilerova et al. 2010 Physiol Res 59: S81-S88).
# (§11) Procedure: male Wistar:WU rats (210-250 g) from Charles River had the left kidney and the renal cortex of the right kidney removed (=SNX) in one session; sham-operated rats served as control group (=SOP). The following groups, each with 12 rats per group, were investigated:
# (§12) Group 2 SNX+placebo (60 g glycerol+100 g water+969 g PEG-400)
# (§13) Group 3 SNX+10 mg/kg body weight/day enalapril (reference therapy, in the drinking water)
# (§14) Group 4 SNX+0.1 mg/kg body weight/day partial A1 agonist EXAMPLE 1, p.o. in placebo
# (§15) Group 5 SNX+1.0 mg/kg body weight/day partial A1 agonist EXAMPLE 1, p.o. in placebo
# (§16) Group 6 SNX+0.3 mg/kg body weight/day partial A1 agonist EXAMPLE 4, p.o. in placebo
# (§17) Group 7 SNX+3.0 mg/kg body weight/day partial A1 agonist EXAMPLE 4, p.o. in placebo
# (§18) Three weeks after 5/6 nephrectomy, the rats developed manifest proteinuria, from this time point the rats were treated for a further four weeks corresponding to the groups stated above. At the end of the protocol, the following samples were obtained/measurements were carried out: eight-hour urine collection with determination of the concentration of hFABP in the urine by ELISA (Rat/Mouse h-FABP ELISA, Hycultbiotech), as marker for end organ damage, invasive measurement of the isoprenaline-induced increase (cumulatively 12.5 ng-250 ng/kg isoprenaline, i.v.) in systolic and diastolic left ventricular function, and TaqMan analyses of renal injury markers in the renal cortex.
# [3] = test system: unilaterally nephrectomized SHR; assay: Functional and structural myocardial dysfunction in unilaterally nephrectomized spontaneously hypertensive rats; assay type: in vivo, rat; conditions: Group 3: UNX + 10 mg/kg body weight/day in drinking water, 4 weeks
# Description: as §1, §2, §3, §4, §5, §6, §7, §8
# [4] = test system: 5/6 nephrectomy rat model; assay: Functional and structural renal dysfunction in 5/6 nephrectomized rats; assay type: in vivo; conditions: Group 3: SNX + 10 mg/kg body weight/day in drinking water, 4 weeks
# Description: as §9, §10, §11, §12, §13, §14, §15, §16, §17, §18
compound,measurement,setting,value
"CCOC(=O)[C@H](CCc1ccccc1)N[C@@H](C)C(=O)N1CCC[C@H]1C(=O)O [enalapril, reference compound]",P-creatinine,[1],62 ± 1.6 mmol/L
same,P-urea,[1],9.3 ± 0.4 mmol/L
same,U-creatinine,[1],1.5 ± 0.3 μmol/ml urine/kg BW/h
same,U-protein,[1],0.43 ± 0.07 μmol/ml urine/kg BW/h
same,U-sodium,[1],30 ± 5 μmol/ml urine/kg BW/h
same,U-urea,[1],153 ± 27 μmol/ml urine/kg BW/h
same,Urine volume,[1],2.4 ± 0.2 ml/kg BW/h
same,CYR61 [gene expression],[1]; renal cortex,460 ± 55 rel. expression
same,Lipocalin-2 [gene expression],[1]; renal cortex,140 ± 23 rel. expression
same,left-ventricular pressure decrease as a function of time,[2]; isoprenaline 0 ng/kg body weight,6613 ± 226 mmHg/s
same,left-ventricular pressure decrease as a function of time,[2]; isoprenaline 12.5 ng/kg body weight,7972 ± 280 mmHg/s
same,left-ventricular pressure decrease as a function of time,[2]; isoprenaline 25 ng/kg body weight,8297 ± 285 mmHg/s
same,left-ventricular pressure decrease as a function of time,[2]; isoprenaline 50 ng/kg body weight,8705 ± 227 mmHg/s
same,left-ventricular pressure decrease as a function of time,[2]; isoprenaline 100 ng/kg body weight,9267 ± 177 mmHg/s
same,left-ventricular pressure decrease as a function of time,[2]; isoprenaline 250 ng/kg body weight,9359 ± 202 mmHg/s
same,Diastolic blood pressure,[3],91 ± 5 mmHg
same,Heart rate,[3],353 ± 7 beats/min
same,"Left ventricular hypertrophy (LVS/RV ratio, mg/mg)",[3],3.7 ± 0.2 mg/mg
same,Left-ventricular end-diastolic pressure,[3],5.4 ± 0.6 mmHg
same,Left-ventricular pressure,[3],130 ± 5 mmHg
same,Pressure decrease over time,[3],−10130 ± 239 mmHg/s
same,Pressure increase over time,[3],8114 ± 304 mmHg/s
same,Systolic blood pressure,[3],132 ± 4 mmHg
same,P-urea,[4],15 ± 1 mmol/L
same,U-creatinine,[4],1.6 ± 0.2 μmol/ml urine/kg BW/h
same,U-protein,[4],0.25 ± 0.04 μmol/ml urine/kg BW/h
same,U-sodium,[4],18 ± 3 μmol/ml urine/kg BW/h
same,U-urea,[4],198 ± 22 μmol/ml urine/kg BW/h
same,Urine volume,[4],2.8 ± 0.2 ml/kg BW/h
same,End organ injury marker concentration in the urine: hFABP,[4]; ELISA,377 ± 151 pg hFABP/ml urine/h
same,End organ injury marker concentration in the urine: hFABP per creatinine,[4]; ELISA,83 ± 33 pg hFABP/μmol creatinine
same,Kidney injury marker-1 [gene expression],[4]; renal cortex,27 ± 17 rel. expression
same,Lipocalin-2 [gene expression],[4]; renal cortex,400 ± 236 rel. expression
same,Osteopontin [gene expression],[4]; renal cortex,6226 ± 4107 rel. expression
